Source: DBAASP
In brackets after ≈: the same amount, converted by molar mass.

Assays:
Test in all cases: ≥ marks a high value that may be exact or a test limit, other limits are often not marked, values filed in µg/mL are converted to µM
[1] = test system: Staphylococcus aureus ATCC 29213
[2] = test system: Escherichia coli ATCC 25922
Pseudomonas aeruginosa = test system: Pseudomonas aeruginosa
Escherichia coli = test system: Escherichia coli
[3] = test system: Pseudomonas aeruginosa ATCC 27853
Staphylococcus aureus = test system: Staphylococcus aureus
[4] = test system: Staphylococcus aureus ATCC 25923

In the case of CC[C@H](C)[C@H](NC(=O)[C@H](CCCN=C(N)N)NC(=O)[C@H](CCC(N)=O)NC(=O)[C@@H](NC(=O)[C@H](C)NC(=O)[C@H](CCCN=C(N)N)NC(=O)[C@H](CCCCN)NC(=O)[C@@H](N)Cc1ccccc1)C(C)C)C(=O)N[C@@H](CCCCN)C(=O)N[C@@H](CC(=O)O)C(=O)N[C@@H](Cc1ccccc1)C(=O)N[C@@H](CC(C)C)C(=O)N[C@@H](CCCN=C(N)N)C(=O)O [FKRAVQRIKDFLR], the MIC [1] is reported as greater than 40 µM and the MIC [2] is reported as 5 µM (≈ 8.39 µg/mL).
In the case of CC[C@H](C)[C@H](NC(=O)[C@H](Cc1ccccc1)NC(=O)[C@H](CO)NC(=O)[C@H](CCCCN)NC(=O)[C@H](Cc1c[nH]c2ccccc12)NC(=O)[C@@H](N)CCCCN)C(=O)N[C@@H](CCCCN)C(=O)N[C@@H](CCCCN)C(=O)N[C@@H](CC(C)C)C(=O)N[C@H](C(=O)N[C@@H](CO)C(=O)N[C@@H](CCCCN)C(=O)N[C@@H](Cc1ccccc1)C(=O)N[C@@H](CC(C)C)C(=O)N[C@@H](Cc1cnc[nH]1)C(=O)N[C@@H](CO)C(=O)N[C@@H](CCCCN)C(=O)N[C@@H](CCCCN)C(=O)N[C@@H](CCCCN)C(=O)N[C@@H](Cc1ccccc1)C(N)=O)[C@@H](C)O [KWKSFIKKLTSKFLHSKKKF], the MIC (Pseudomonas aeruginosa) is reported as 4.98 µM (≈ 12.5 µg/mL).
Molecule CC[C@H](C)[C@H](NC(=O)[C@H](CCCN=C(N)N)NC(=O)[C@@H](NC(=O)[C@H](CCCN=C(N)N)NC(=O)[C@H](CCC(N)=O)NC(=O)[C@H](Cc1cnc[nH]1)NC(=O)[C@@H](NC(=O)[C@H](CCCN=C(N)N)NC(=O)[C@H](CCCN=C(N)N)NC(=O)[C@H](CCCCN)NC(=O)[C@H](CCCN=C(N)N)NC(=O)[C@H](CCCCN)NC(=O)[C@H](CO)NC(=O)[C@H](CCCN=C(N)N)NC(=O)[C@@H](N)CCCCN)[C@@H](C)CC)C(C)C)C(=O)N[C@@H](CO)C(=O)O [KRSKRKRRIHQRVRIS] has an MIC (Escherichia coli) greater than 23.8 µM and an MIC [2] greater than 23.8 µM.
For CC(C)C[C@H](NC(=O)[C@H](C)NC(=O)[C@H](CCCCN)NC(=O)[C@H](CCCCN)NC(=O)[C@H](CC(C)C)NC(=O)[C@H](CC(C)C)NC(=O)[C@H](CCCCN)NC(=O)[C@H](CC(C)C)NC(=O)[C@H](CC(C)C)NC(=O)[C@H](CCCCN)NC(=O)[C@H](CCCCN)NC(=O)[C@@H](N)CC(C)C)C(=O)N[C@@H](CCCCN)C(=O)N[C@@H](CC(C)C)C(=O)N[C@@H](C)C(=O)NCC(=O)O [LKKLLKLLKKALKLAG], the MIC [1] was 5 µM (≈ 8.89 µg/mL) and the MIC [2] was 5 µM (≈ 8.89 µg/mL).
Work on CC[C@H](C)[C@H](NC(=O)[C@H](CCSC)NC(=O)[C@H](C)NC(=O)[C@@H]1CCCN1C(=O)[C@@H](NC(=O)[C@@H](NC(=O)[C@H](CCCCN)NC(=O)[C@@H](NC(=O)[C@H](CC(C)C)NC(=O)CN)[C@@H](C)CC)[C@@H](C)CC)C(C)C)C(=O)N[C@H]1CSSC[C@@H](C(=O)O)NC(=O)[C@H](CCCCN)NC(=O)[C@H](CCCCN)NC(=O)[C@H]([C@@H](C)O)NC(=O)[C@H](C(C)C)NC(=O)[C@H](C)NC1=O [GLIKIVPAMICAVTKKC] yielded an MIC [3] greater than 143 µM, an MIC [1] greater than 143 µM and an MIC [2] greater than 143 µM.
CC[C@H](C)[C@H](NC(=O)[C@@H](NC(=O)[C@@H](N)Cc1ccccc1)[C@@H](C)CC)C(=O)N[C@@H](Cc1c[nH]c2ccccc12)C(=O)N1CCC[C@H]1C(=O)N[C@@H](CC(C)C)C(=O)N[C@@H](CCCN=C(N)N)C(=O)N[C@@H](Cc1ccc(O)cc1)C(=O)N[C@@H](CCCN=C(N)N)C(=O)N[C@@H](CCCCN)C(N)=O [FIIWPLRYRK] showed an MIC [1] of 359 µM (≈ 500 µg/mL) and an MIC [2] of 180 µM (≈ 250 µg/mL).
CC(C)C[C@H](NC(=O)[C@H](C)NC(=O)[C@H](Cc1ccc(O)cc1)NC(=O)[C@H](CC(C)C)NC(=O)[C@H](CCCN=C(N)N)NC(=O)[C@H](C)NC(=O)[C@H](CC(C)C)NC(=O)[C@H](CO)NC(=O)[C@H](C)NC(=O)[C@H](CC(C)C)NC(=O)[C@@H](N)CC(=O)O)C(=O)N[C@@H](C)C(=O)N[C@@H](CCCN=C(N)N)C(N)=O [DLASLARLYALAR] was tested, and the MIC [1] was greater than 489 µM and the MIC [2] was greater than 489 µM.
With CC[C@H](C)[C@H](NC(=O)[C@H](Cc1c[nH]c2ccccc12)NC(=O)[C@H](CCCCN)NC(=O)[C@@H](NC(=O)[C@H](CC(C)C)NC(=O)[C@H](CCCCN)NC(=O)CNC(=O)[C@@H](NC(=O)[C@@H](NC(=O)[C@H](CO)NC(=O)[C@@H](NC(=O)[C@@H](NC(=O)[C@H](CCCCN)NC(=O)[C@H](CCC(N)=O)NC(=O)[C@H](C)NC(=O)[C@@H](N)CCSC)[C@@H](C)CC)[C@@H](C)CC)[C@@H](C)O)[C@@H](C)CC)C(C)C)C(=O)N[C@H](C(=O)N[C@@H](CCCCN)C(=O)N[C@H](C(=O)N[C@H](C(=O)N[C@@H](CC(N)=O)C(=O)N[C@@H](CCCCN)C(=O)N[C@@H](Cc1ccccc1)C(=O)N[C@H](C(=O)N[C@@H](CCCCN)C(=O)N[C@@H](CCCCN)C(=O)O)[C@@H](C)O)C(C)C)[C@@H](C)O)[C@@H](C)CC [MAQKIISTIGKLVKWIIKTVNKFTKK] the MIC (Escherichia coli) was 3.8 µM (≈ 11.5 µg/mL) and the MIC (Staphylococcus aureus) was 20 µM (≈ 60.4 µg/mL).
Work on CC(C)C[C@H](NC(=O)[C@H](CCCCN)NC(=O)[C@H](CC(C)C)NC(=O)[C@H](CC(C)C)NC(=O)[C@H](CCCCN)NC(=O)[C@H](CCCCN)NC(=O)[C@H](CC(=O)O)NC(=O)[C@H](CC(C)C)NC(=O)[C@H](CCCCN)NC(=O)[C@H](CC(C)C)NC(=O)[C@H](CC(C)C)NC(=O)[C@H](CCCCN)NC(=O)[C@H](CCCCN)NC(=O)[C@@H](N)CC(C)C)C(=O)N[C@@H](C)C(=O)NCC(=O)O [LKKLLKLDKKLLKLAG] yielded an MIC [1] greater than 40 µM and an MIC [2] of 10 µM (≈ 18.2 µg/mL).
Work on C[C@H](NC(=O)[C@H](C)NC(=O)[C@H](CCCCN)NC(=O)[C@H](C)NC(=O)[C@H](Cc1ccccc1)NC(=O)[C@H](Cc1c[nH]c2ccccc12)NC(=O)[C@H](CCCCN)NC(=O)[C@H](Cc1ccccc1)NC(=O)[C@H](CCCCN)NC(=O)[C@H](CCCCN)NC(=O)[C@H](C)NC(=O)[C@H](Cc1ccccc1)NC(=O)[C@@H](N)CCCCN)C(=O)N[C@@H](Cc1ccccc1)C(=O)N[C@@H](CCCCN)C(=O)N[C@@H](Cc1ccccc1)C(=O)N[C@@H](Cc1ccccc1)C(=O)N[C@@H](CCCCN)C(=O)N[C@@H](CCCCN)C(N)=O [KFAKKFKWFAKAAFKFFKK] yielded an MIC (Escherichia coli) of 7.23 µM (≈ 17.3 µg/mL) and an MIC (Staphylococcus aureus) of 4.17 µM (≈ 10 µg/mL).
Molecule CC(C)C[C@H](NC(=O)[C@H](C)NC(=O)[C@H](CCCCN)NC(=O)[C@H](CCCCN)NC(=O)[C@@H](N)CC(C)C)C(=O)N[C@@H](CCCCN)C(=O)N[C@@H](CC(C)C)C(=O)N[C@@H](CC(C)C)C(=O)N[C@@H](CCCCN)C(=O)N[C@@H](CCCCN)C(=O)N[C@@H](CC(C)C)C(=O)N[C@@H](CC(C)C)C(=O)N[C@@H](CCCCN)C(=O)N[C@@H](CC(C)C)C(=O)N[C@@H](C)C(=O)NCC(=O)O [LKKALKLLKKLLKLAG] has an MIC [1] of 5 µM (≈ 8.89 µg/mL) and an MIC [2] of 5 µM (≈ 8.89 µg/mL).
In the case of CC(=O)N[C@@H](CC(C)C)C(=O)N[C@@H](CCCCN)C(=O)N[C@@H](CCCCN)C(=O)N[C@@H](CC(C)C)C(=O)N[C@@H](CC(C)C)C(=O)N[C@@H](CCCCN)C(=O)N[C@@H](CC(C)C)C(=O)N1CCC[C@H]1C(=O)N[C@@H](CCCCN)C(=O)N[C@@H](CCCCN)C(=O)N[C@@H](CC(C)C)C(=O)N[C@@H](CC(C)C)C(=O)N[C@@H](CCCCN)C(=O)N[C@@H](CC(C)C)C(N)=O [LKKLLKLPKKLLKL], the MIC [1] is reported as greater than 80 µM and the MIC [2] is reported as 56.6 µM (≈ 97.1 µg/mL).
Work on CC(C)[C@H](NC(=O)[C@H](CC(=O)O)NC(=O)[C@H](CO)NC(=O)[C@@H](N)CCCCN)C(=O)N[C@@H](CCCN=C(N)N)C(=O)N[C@@H](CCCN=C(N)N)C(=O)N[C@@H](Cc1c[nH]c2ccccc12)C(=O)N[C@@H](CCCN=C(N)N)C(=O)N[C@@H](CO)C(=O)N[C@@H](CCCN=C(N)N)C(=O)N[C@@H](Cc1ccc(O)cc1)C(N)=O [KSDVRRWRSRY] yielded an MIC [4] greater than 100 µM, an MIC [3] greater than 100 µM and an MIC [2] greater than 100 µM.
Molecule CC(C)C[C@H](NC(=O)[C@H](CCCCN)NC(=O)[C@H](C)NC(=O)[C@H](CC(C)C)NC(=O)[C@H](CCCCN)NC(=O)[C@H](CCCCN)NC(=O)[C@H](C)NC(=O)[C@H](CC(C)C)NC(=O)[C@H](CCCCN)NC(=O)[C@H](C)NC(=O)[C@H](CC(C)C)NC(=O)[C@H](CCCCN)NC(=O)[C@H](CCCCN)NC(=O)[C@H](C)NC(=O)[C@H](CC(C)C)NC(=O)[C@H](CCCCN)NC(=O)[C@H](C)NC(=O)[C@H](CC(C)C)NC(=O)[C@@H](N)CCCCN)C(=O)N[C@@H](C)C(=O)N[C@@H](CCCCN)C(N)=O [KLAKLAKKLAKLAKKLAKLAK] has an MIC [4] of 4 µM (≈ 9.1 µg/mL), an MIC [3] of 4 µM (≈ 9.1 µg/mL) and an MIC [2] of 4 µM (≈ 9.1 µg/mL).
Molecule CSCC[C@H](NC(=O)[C@H](CCCN=C(N)N)NC(=O)[C@@H](N)Cc1ccc(O)cc1)C(=O)N[C@@H](Cc1c[nH]c2ccccc12)C(=O)N[C@@H](CCCN=C(N)N)C(=O)N[C@@H](Cc1c[nH]c2ccccc12)C(=O)N[C@@H](C)C(=O)N[C@@H](Cc1c[nH]c2ccccc12)C(=O)N[C@@H](CCCN=C(N)N)C(=O)N[C@@H](Cc1c[nH]c2ccccc12)C(=O)N[C@@H](CCCN=C(N)N)C(N)=O [YRMWRWAWRWR] has an MIC [4] of 1.43 µM (≈ 2.5 µg/mL), an MIC [3] of 11.4 µM (≈ 20 µg/mL) and an MIC [2] of 5.7 µM (≈ 9.99 µg/mL).
CC[C@H](C)[C@H](NC(=O)[C@H](CCCN=C(N)N)NC(=O)[C@H](CCC(=O)O)NC(=O)[C@H](CCCCN)NC(=O)[C@H](CCC(=O)O)NC(=O)[C@H](CCCCN)NC(=O)[C@H](CO)NC(=O)[C@H](CC(C)C)NC(=O)[C@@H](N)[C@@H](C)O)C(=O)N[C@H](C(=O)N[C@@H](CCC(N)=O)C(=O)N[C@@H](CCCN=C(N)N)C(=O)N[C@H](C(=O)N[C@@H](CCCN=C(N)N)C(=O)N[C@H](C(=O)N[C@@H](CO)C(=O)O)[C@@H](C)O)C(C)C)C(C)C [TLSKEKERIVQRVRTS] showed an MIC (Escherichia coli) greater than 25.9 µM and an MIC [2] greater than 25.9 µM.
For CC(=O)N[C@@H](CC(C)C)C(=O)N[C@@H](CCCCN)C(=O)N[C@@H](CCCCN)C(=O)N[C@@H](CC(C)C)C(=O)N[C@@H](CC(C)C)C(=O)N[C@@H](CCCCN)C(=O)N[C@@H](CC(C)C)C(=O)N[C@@H](CC(C)C)C(=O)N[C@@H](CCCCN)C(=O)N[C@@H](CCCCN)C(=O)N1CCC[C@H]1C(=O)N[C@@H](CC(C)C)C(=O)N[C@@H](CCCCN)C(=O)N[C@@H](CC(C)C)C(N)=O [LKKLLKLLKKPLKL], the MIC [1] was 40 µM (≈ 68.7 µg/mL) and the MIC [2] was 28.3 µM (≈ 48.6 µg/mL).
